Results on 1 compound are retold here after patent US20250281497A1, “FUSED AMINO PYRIMIDINE COMPOUNDS FOR TREATMENT OF SEIZURE DISORDERS” (Ovid Therapeutics Inc., priority 2024, published 2025).

In data set [1] the target is T1, NKCC1 (Homo sapiens, UniProt P55011).
T1 construct: expressed in transfected cells; host or cells: HEK-293
T1 sequence (P55011 1-1212): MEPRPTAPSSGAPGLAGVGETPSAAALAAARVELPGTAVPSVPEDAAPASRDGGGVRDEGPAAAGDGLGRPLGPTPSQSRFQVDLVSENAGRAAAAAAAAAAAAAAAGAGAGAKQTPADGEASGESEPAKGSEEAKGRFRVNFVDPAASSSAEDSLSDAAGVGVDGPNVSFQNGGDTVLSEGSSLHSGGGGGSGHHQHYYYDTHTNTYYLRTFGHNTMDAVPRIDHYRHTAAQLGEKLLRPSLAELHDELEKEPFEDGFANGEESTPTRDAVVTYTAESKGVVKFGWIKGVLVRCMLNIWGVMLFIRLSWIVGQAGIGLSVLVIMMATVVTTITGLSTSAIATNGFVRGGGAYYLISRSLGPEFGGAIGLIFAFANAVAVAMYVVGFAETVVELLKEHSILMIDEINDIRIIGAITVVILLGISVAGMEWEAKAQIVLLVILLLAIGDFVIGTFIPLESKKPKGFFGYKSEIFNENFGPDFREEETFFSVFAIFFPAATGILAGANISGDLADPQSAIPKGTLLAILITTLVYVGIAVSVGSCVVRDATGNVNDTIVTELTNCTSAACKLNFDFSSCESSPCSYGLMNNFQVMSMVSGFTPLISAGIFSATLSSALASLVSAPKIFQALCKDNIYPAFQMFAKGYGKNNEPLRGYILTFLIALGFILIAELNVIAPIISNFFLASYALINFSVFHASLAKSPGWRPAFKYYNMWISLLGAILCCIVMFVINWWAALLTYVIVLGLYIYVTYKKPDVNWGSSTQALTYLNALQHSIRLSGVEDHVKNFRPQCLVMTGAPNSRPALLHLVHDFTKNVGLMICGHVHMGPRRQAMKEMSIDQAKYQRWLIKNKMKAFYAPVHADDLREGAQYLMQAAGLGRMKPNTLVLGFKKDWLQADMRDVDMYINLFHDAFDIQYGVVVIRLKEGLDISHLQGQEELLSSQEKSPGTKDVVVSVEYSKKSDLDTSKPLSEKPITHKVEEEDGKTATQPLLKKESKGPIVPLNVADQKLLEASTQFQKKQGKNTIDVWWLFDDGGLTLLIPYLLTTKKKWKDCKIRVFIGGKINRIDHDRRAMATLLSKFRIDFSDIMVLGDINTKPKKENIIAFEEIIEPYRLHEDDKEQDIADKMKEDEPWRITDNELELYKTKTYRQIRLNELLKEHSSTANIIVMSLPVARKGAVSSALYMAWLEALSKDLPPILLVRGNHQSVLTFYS
The experiment in a line: Tl+ assay, HEK-293 cells expressing NKCC1. In kind it is cell-based. Particulars: read-out: concentration at which effects on NKCC1 were seen (EC50 chart FIG. 1G). The protocol: FLIPR TI Flux assay. HEK-293 cells were washed with HBSS, and then incubated with loading buffer containing TI sensitive fluorescent dye (https://www.moleculardevices.com), 20 μM bumetanide 20 μM ouabain and 2.5 mM probenecid for 1 h at room temperature (RT) under control conditions or with drugs in the dark using a FlexStation 3 microplate reader (Molecular Devices) and imaged […] for 30 min. Stimulus buffer was added containing 5 mM K^+/0.5 mM Tl^+ and cells were imaged every 1.5 over a 190 second time course The initial rate Tl^+ uptake (Relative Fluorescence Units (RFU) per second) was determined following addition of the stimulus buffer as outlined previously (Conway et at, 2017, supra) (Lee et at, 2022, supra).
Several studies have shown that the activity and plasma membrane accumulation of KCC2 is potentiated via phosphorylation of S940, a process mediated by the activity of protein kinase C and protein phosphatase 1 (Lee et al., 2011, supra; Lee et al., J Biol Chem 282, 29777-29784 (2007); Moore et al., Proc. Natl. Acad. Sci. U.S.A. 115, 10166-10171 (2018); Moore et al., Trends Neurosci. 40, 555-571 (2017); Silayeva et al., Proc. Natl. Acad. Sci. U.S.A. 112, 3523-3528 (2015)). […] Compared to KCC2, effects on KCC3, KCC4, and NKCC1 were only seen at concentrations more than 35-fold that of KCC2 (>100 μM) (FIG. 1G).

On the set-up of data set [2]: species or system mice. Particulars: in vivo.
The subject of data set [3] is KA induced SE. As to the kind of experiment: Kainic acid (KA) induced SE, EEG recording, pretreatment. It is filed as in vivo, mice. From the text:
This model was chosen due to the similarities with patients undergoing SE, as KA-induced seizures become refractory to benzodiazepines (BDZs) within minutes (Betjemann and Lowenstein, Lancet Neurol 14, 615-624 (2015); Crawshaw and Cock, (2020a) [Seizure: Eur. J. Epilep. 75 (2020) 145-152] Seizure 80, 282; Lee et at, 2022, supra; Reddy and Kuruba, Int J Mol Sci 14, 18284-18318 (2013)).
EEG recordings and analysis. WT C57Bl/6J adult male mice (12 weeks) were anesthetized with isofluorane and implanted with EEG/EMG electrodes and allowed to recover for 7 days prior to experimentation. […] 2h following KA administration mice were injected with a saturating concentration of diazepam (DZ) 10 mg/kg (IP) and recordings were extended for a further 60 min. […] LabChart 8 software was used for data analysis. Epileptiform activity was identified by changes in the amplitude of electrographic activity characterized by consistent changes in the power of the Fast Fourier transform (FFT) of the EEG and abnormal activity characterized by periods of rhythmic spiking lasting longer than 30s (Moore et al., 2017, supra; Silayeva et al., 2015, supra; Sivakumaran et al., J. Neurosci. 35, 8291-8296 (2015)).
To provide quantitative insights on the effects of KA, raw EEG recordings were subject to Fast-Fourier transformation (8K FFT size, Hann (cosine-bell), 87.50% window overlap) for frequencies between 0-100 Hz 2h after KA injection (Lee et at, 2022, supra).
30 or 60 min later mice were injected with KA (20 mg/kg) and 2h later with DZ as detailed above.

Take `C[C@@H]1CN(c2nc3c(c(Nc4ccc(C5CCCCC5)cc4)n2)COC3)CCO1` [Compound A, (R)—N-(4-cyclohexylphenyl)-2-(2-methylmorpholino)-5,7-dihydrofuro[3,4-d]pyrimidin-4-amine]: in data set [1], the EC50 is more than 100 µM. Moreover, the “gross effects on mouse behavior, open field” value in data set [2] was “no gross effects on mouse behavior”. Further, in data set [3] (10 μM or 20 μM, 30 or 60 min before KA 20 mg/kg, relative to vehicle), the “seizure parameters after injection directly into the hippocampus” value was “increased the latency to the 1st seizure, to SE, and reduced the percentage of time in epileptiform activity”. For the same compound, the “latency to the first seizure” value in data set [3] (50 mg/kg SC 2h before 20 mg/kg KA IP, vehicle=10.2±2.5) was found to be 14.4 ± 2.9 min. Further, the “latency to SE” value in data set [3] (50 mg/kg SC 2h before KA, vehicle=38.3±3.4) was 54.5 ± 6.9 min. Also, the “time spent in epileptiform activity” value in data set [3] (50 mg/kg SC 2h before KA, vehicle=85±5.4) came out at 62.5±8.4%. The “total EEG power post DZ” value in data set [3] (mice pretreated with Compound A, then DZ 10 mg/kg IP 2h after KA) was 2.7±3.2×10^−7 μV^2. Further, the “total EEG power 2h after KA (pre DZ)” value in data set [3] (pretreated with Compound A, vehicle 4.2±2.4×10^−6) was 6.9±3.2×10^−7 μV^2. The “development of refractory status epilepticus (RSE)” value in data set [3] (pretreatment, 4h later) was “prevented the development of refractory status epilepticus (RSE)”.
